{"source": "paper PMC8071358", "about": "“Targeting of the Essential acpP, ftsZ, and rne Genes in Carbapenem-Resistant Acinetobacter baumannii by Antisense PNA Precision Antibacterials” (Biomedicines, 2021)", "assay_type_in_all_cases": "cell-based, Acinetobacter baumannii", "key": {"CRAB strain AC7": {"test_system": "CRAB strain AC7", "assay": "BPP-PNA MIC, broth microdilution", "conditions": "MHB without cation (Oxoid); 37 °C, 18 h", "how_it_was_run": "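Non-cation-adjusted MHB, inoculum ~5 × 10^5 CFU/mL; BPP-PNA 2-fold series prepared at 16–0.5 µM before addition to wells. 37 °C, 18 h, linear shaking, OD 595 nm every 20 min. ≥2 biological × 2 technical replicates.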"}, "[1]": {"test_system": "ftsZ mRNA in CRAB AC44 strain", "assay": "Real-time RT-PCR of target mRNA", "conditions": "AC44, 1 h after treatment, normalised to 16S rRNA, against untreated control", "procedure": "(§1) Real time RT-PCR was used to determine the relative expression level of the target gene upon treatment with match BPP-PNA compared to mismatch and untreated controls. The primers for q-PCR were designed to match conserved gene sequences using the AlleleID7 software (Premier Biosoft, San Francisco, CA, USA) (Table S6). Additionally, for more accurate expression of the genes at treatment and untreated conditions, the efficacy of target gene and internal controls primers was calculated by using three consecutive dilutions of the sample cDNA and drawing a standard curve through the slope of the line. […] Statistical analysis was carried out on the gene expression levels normalized to the chosen reference gene (16S rRNA) through −∆Ct analysis. The relative expression of each gene was determined by the 2^−ΔΔCT method. We used the GenEx standard (NormFinder and GeNorm) software (bioMCC, Germany) for analyzing the data.\n(§2) An overnight culture of bacteria was diluted 1:100 in MHB medium and was grown with shaking (160 rpm) at 37 °C to reach the OD595 = 0.2. Then, the bacterial culture was treated with different concentrations of BPP-PNA for 1 h and the bacterial cells were harvested by centrifugation and the cell pellet used for RNA extraction.\n(§3) Total RNA was isolated using the GeneJET RNA purification kit (ThermoFisher Scientific, Roskilde, Denmark) following the manufacturer’s protocol. RNA samples were treated with DNase for 30 min at 37 °C (Turbo DNA-free kit Ambion/Applied Biosystems, Carlsbad, CA, USA) and then incubated at 72 °C for 5 min to inactivate the DNase. The genomic DNA (gDNA) contamination was checked by polymerase chain reaction (PCR). RNA concentrations were determined by Nanodrop spectrophotometry at 260 nm and purity was checked by determining the absorption ratios at 260/280 nm. Total RNA (0.5 μg) was reverse-transcribed to yield cDNA as template for real-time quantitative PCR using the Quanti Tect reverse transcription kit (Qiagen, Copenhagen, Denmark). The cDNA was diluted 1:50 and used as a template in the reaction. […]"}, "[2]": {"test_system": "acpP mRNA in CRAB AC44 strain", "assay": "Real-time RT-PCR of target mRNA", "conditions": "AC44, 1 h treatment, normalised to 16S rRNA, against untreated control", "procedure": "as §1, §2, §3"}}, "data": [{"substance": "H-(KFF)3K-eg1-GAGGCCATGAC-NH2 (antisense; N-terminal (KFF)3K-eg1 peptide, C-terminal amide, backbone not given here, further chemistry not given here) [PNA 5612, anti-ftsZ peptide-PNA conjugate, match, −3 to +8]", "values": [{"measurement": "MIC, AC7", "setting": "CRAB strain AC7", "value": 4, "unit": "µM"}, {"measurement": "reduction in ftsZ mRNA", "setting": "[1]", "value": "up to 60%"}]}, {"substance": "H-(KFF)3K-eg1-TGATTTGCCAC-NH2 (antisense; N-terminal (KFF)3K-eg1 peptide, C-terminal amide, backbone not given here, further chemistry not given here) [PNA 5639, anti-acpP peptide-PNA conjugate, match, +1 to +11]", "values": [{"measurement": "reduction in the level of the acpP mRNA", "setting": "[2]", "value": "> 34", "unit": "fold"}]}]}
